Data reported in US6358941B1, “Treatment of arthritis disorders, rheumatoid arthritis and manifestations associated with rheumatoid disorders” (priority 1996, dated 2002).
Counter-ions that a name gives are not always drawn.

Experiments:
[1] = test system: patients with osteoarthritis; assay: Treatment of patients with osteoarthritis (Example 5); format: in vivo, human
[2] = test system: patient with Rheumatoid Arthritis and anaemia; assay: Treatment of a patient with anaemia of chronic disorder (Example 6); format: in vivo, human
Procedure: The patient was treated in the period between Jan. 3, 1997 and Jan. 20, 1997.

[3] = test system: haemolysate cholinesterase (erythrocyte acetylcholinesterase); assay: Cholinesterase activity in haemolysed whole blood (Sigma Diagnostics Cholinesterase (PTC) kit); format: biochemical, human; conditions: 0 to 2.5 μg/ml added in vitro
Procedure: (§1) SIGMA DIAGNOSTICS® CHOLINESTERASE (PTC) kit, available from Sigma Diagnostics, can be used for determining the activity and selectivity of cholinesterase inhibitors.
(§2) Reactions involved in the cholinesterase assay are as follows:
(§3) Propionylthiocholine+H2O→Propionic Acid+Thiocholine
(§4) Thiocholine+5, 5′-Dithiobis-2-Nitrobenzoic Acid→5-Thio-2-Nitrobenzoic Acid
(§5) 5-Thio-2-Nitrobenzoic Acid is assessed by measuring the absorbance at 405 nm. The rate of change in absorbance at 405 nm is directly proporational to cholinesterase activity.
(§6) The activity of erythrocyte cholinesterase may be calculated on the basis of the measurement of butyrylcholinesterase (pseudocholinesterase) in serum and cholinesterase in haemolyzed whole blood (haemolysate), both measured simultaneously by the method described above, and evaluated according to the haematocrit value according to the formula
HChE=(EChE×Hctg*)+(PChE×(1-Hct*))
In the above formulae, EChE is erythrocyte cholinesterase activity, PChE is plasma cholinesterase activity, HChE is haemolysate cholinesterase activity, and Hct is haematocrit value of the sample.
Another way of assessing the cholinesterase activity is to measure the plasma cholinesterase and the cholinesterase in purified haemolyzed erythrocytes. By doing this, the values are obtained directly.
Blood samples from 3 patients were tested with the Sigma test. […]

[4] = biological target: T1, butyrylcholinesterase (pseudocholinesterase) in serum (Homo sapiens, UniProt P06276); assay: Cholinesterase activity in serum (Sigma Diagnostics Cholinesterase (PTC) kit); format: biochemical; conditions: 0 to 2.5 μg/ml added in vitro
T1 construct: butyrylcholinesterase (pseudocholinesterase) in serum; from tissue; host or cells: serum of patients
Procedure: as §1, §2, §3, §4, §5, §6
Blood samples from 3 patients were tested with the Sigma test. […] The results are shown below in table 1.1.

[5] = in vivo; cited from earlier work
[6] = humans; cited from earlier work
[7] = room temperature; galantamine and its acid addition salts; cited from earlier work
[8] = test system: patients suffering from different arthritic disorders of rheumatoid origin; assay: Treatment of patients with rheumatoid diseases (Example 7); format: in vivo, human
Excerpt: Stiffness: Joint stiffness is a complaint covering sensations which range from slight resistance to all movements through the normal range, to blocking of certain movements due to fixed anatomical changes. Certain types of stiffness are highly characteristic, such as early morning stiffness.
Early morning stiffness occurs primarily in rheumatoid arthritis, but also in other arthritic diseases. The patient awakes with distressing, painful stiffness of all affected joints. This is gradually “worked off ” by activity over one half to three hours or more. This “limbering up time” provides a reliable measure of inflammatory activity. In osteoarthritis stiffness tends to come on later in the day and is preceded by activity.
In one of the examples given of rheumatoid patients on galantamine, the parameters evaluated were tiredness, sleep, pain, and stiffness. […] All these parameters were evaluated with a questionaire and VAS (Visual Analogue Scale) which refer to the patients' reporting as regards the severity of the symptoms, represented by a 0-100 percentage line.

T1 sequence (P06276 29-602): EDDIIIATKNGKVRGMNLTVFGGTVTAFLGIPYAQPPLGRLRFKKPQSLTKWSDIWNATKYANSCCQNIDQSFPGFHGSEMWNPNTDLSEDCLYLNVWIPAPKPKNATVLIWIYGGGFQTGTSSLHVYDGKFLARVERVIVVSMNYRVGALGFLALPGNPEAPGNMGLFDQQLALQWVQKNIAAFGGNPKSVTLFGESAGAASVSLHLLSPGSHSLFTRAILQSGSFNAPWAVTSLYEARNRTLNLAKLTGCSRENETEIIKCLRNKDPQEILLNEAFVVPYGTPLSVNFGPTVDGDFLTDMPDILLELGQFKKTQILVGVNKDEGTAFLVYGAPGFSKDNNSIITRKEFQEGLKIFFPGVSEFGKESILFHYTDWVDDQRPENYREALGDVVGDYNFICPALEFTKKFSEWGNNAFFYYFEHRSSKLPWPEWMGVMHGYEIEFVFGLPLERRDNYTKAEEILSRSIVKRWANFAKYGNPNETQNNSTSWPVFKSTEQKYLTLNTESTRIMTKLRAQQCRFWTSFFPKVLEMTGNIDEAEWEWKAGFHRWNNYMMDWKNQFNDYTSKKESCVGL

Compound | joint pain symptoms, second patient ([1]; 10 mg per day (2 x 5 mg tablets), after three days, osteoarthritis not diagnosed) | osteoarthritis symptoms, first volunteer ([1]; 10 mg per day orally (2 x 5 mg), after seven days, maintained over 31 days, dose raised to 30 mg per day) | symptoms when medication was discontinued, first volunteer ([1]; after 31 day period) | laboratory blood tests reflecting anaemia ([2]; 15 mg per day (3 x 5 mg orally), after 14 days) | Change of haemolysate cholinesterase activity with increased concentration [3] | Change of serum cholinesterase activity as response to addition [4] | elimination half life [5] | Haematocrit ([2]; 20-1-97, after treatment with 15 mg per day orally, normal 0.360-0.470, 0.342 on 3-1-97) [L/L] | White cells ([2]; 20-1-97, after treatment with 15 mg per day orally, normal 3.8-10.2, 6.6 on 3-1-97) [L⁻¹] | Red cells ([2]; 20-1-97, after treatment with 15 mg per day orally, normal 4.00-5.8, 3.72 on 3-1-97) [L⁻¹] | Haemoglobin ([2]; 20-1-97, after treatment with 15 mg per day orally, normal 118-158, 115 on 3-1-97) [g/L] | passing the blood-brain barrier [6] | solubility in water [7] | patients reporting a significant improvement in their symptoms ([8]; 13 patients, patient numbers 1, 2, 3, 5, 9, 10 and 12) [%] | augmentation of grip strength ([8]; one RA patient (patient number 1))
COc1ccc2c3c1O[C@H]1C[C@@H](O)C=C[C@@]31CCN(C)C2 [galantamine hydrobromide] | improvement in symptoms | improvement in osteoarthritis symptoms | Symptoms were reported to recur | significant improvement | significant reduction | do not show any statistically significant changes | over four | – | – | – | – | – | – | – | –
COc1ccc2c3c1O[C@H]1C[C@@H](O)C=C[C@@]31CCN(C)C2 [galantamine] | – | – | – | – | – | – | – | 0.362 | 5.9e+09 | 3.94e+12 | 124 | capable of passing the blood-brain barrier | only sparingly soluble | 50 | over 50%
